In patent US20260083704A1, “LXR MODULATORS WITH BICYCLIC CORE MOIETY FOR TREATING DYSLIPIDEMIAS” (OrsoBio, Inc., priority 2022, published 2026):
Read-outs that look alike come from different tables or passages of the source.

What was measured:
LXRα = biological target: T1, LXRα (Homo sapiens, UniProt Q13133); test: LXR Gal4 reporter transient transfection assay (mammalian two-hybrid, HEK293), LXRα; type: cell-based; parameters: expressed in transfected cells; host or cells: HEK293; settings: full length (FL) LXRα, HEK293; read-out: FL-M2H Gal4α
T1 sequence (Q13133 1-447): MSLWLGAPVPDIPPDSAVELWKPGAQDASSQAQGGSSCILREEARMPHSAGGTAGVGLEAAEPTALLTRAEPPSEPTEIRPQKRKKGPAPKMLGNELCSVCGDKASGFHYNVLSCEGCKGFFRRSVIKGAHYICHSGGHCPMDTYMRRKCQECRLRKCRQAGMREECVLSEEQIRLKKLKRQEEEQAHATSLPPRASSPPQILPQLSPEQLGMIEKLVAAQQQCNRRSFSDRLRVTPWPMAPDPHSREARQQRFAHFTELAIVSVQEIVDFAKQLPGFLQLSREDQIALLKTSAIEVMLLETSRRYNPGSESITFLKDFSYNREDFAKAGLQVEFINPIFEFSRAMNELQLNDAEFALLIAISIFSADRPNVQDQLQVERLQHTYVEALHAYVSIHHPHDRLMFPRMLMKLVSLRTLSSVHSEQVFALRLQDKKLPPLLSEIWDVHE
Method: (§1) LXRα and LXRβ activity status was determined via detection of interaction with coactivator and corepressor proteins in mammalian two-hybrid experiments (M2H). For this, via transient transfection the full length (FL) proteins of LXRα (amino acids 1-447; NP005684; SEQ ID NO:1) or LXRβ-(amino acids 1-461; NP009052; SEQ ID NO:2) or the ligand-binding domains (LBD) of LXRα (amino acids 155-447 SEQ ID NO:3) or LXRβ (amino acids 156-461; SEQ ID NO:4) were expressed from pCMV-AD (Stratagene) as fusions to the transcriptional activation domain of NFkB. As cofactors, domains of either the steroid receptor coactivator 1 (SRC1; amino acids 552-887; SEQ ID NO:5) or of the corepressor NCoR (amino acids 1906-2312; NP006302; SEQ ID NO:6) were expressed as fusions to the DNA binding domain of the yeast transcription factor GAL4 (from pCMV-BD; Stratagene). Interaction was monitored via activation of a coexpressed Firefly Luciferase Reporter gene under control of a promoter containing repetitive GAL4 response elements (vector pFRLuc; Stratagene). Transfection efficiency was controlled via cotransfection of constitutively active pRL-CMV Renilla reniformis luciferase reporter (Promega). HEK293 cells were grown in minimum essential medium (MEM) with 2 mM L-glutamine and Earle's balanced salt solution supplemented with 8.3% fetal bovine serum, 0.1 mM non-essential amino acids, 1 mM sodium pyruvate, at 37° C. in 5% CO2. 3.5×10^4 cells/well were plated in 96-well cell culture plates in growth medium supplemented with 8.3% fetal bovine serum for 16-20 h to ˜90% confluency. For transfection, medium was taken off and LXR and cofactor expressing plasmids as well as the reporter plasmids are added in 30 μL OPTIMEM/well including polyethylene-imine (PEI) as vehicle. Typical amounts of plasmids transfected/well: pCMV-AD-LXR (5 ng), pCMV-BD-cofactor (5 ng), pFR-Luc (100 ng), pRL-CMV (0.5 ng). Compound stocks were prepared in DMSO, prediluted in MEM to a total volume of 120 μL, and added 4 h after addition of the transfection mixture (final vehicle concentration not exceeding 0.2%). Cells were incubated for additional 16 h, lysed for 10 min in 1×Passive Lysis Buffer (Promega) and Firefly and Renilla luciferase activities were measured sequentially in the same cell extract using buffers containing D-luciferine and coelenterazine, respectively. Measurements of luminescence were done in a BMG-luminometer.
(§2) The potencies of Compound 21/3 and its analog, Compound pre-6/3, against LXRα and LXRβ were evaluated in biochemical binding assays, cellular mammalian two-hybrid (M2H) interaction assays evaluating nuclear receptor co-repressor (NCOR) recruitment, and cellular reporter assays evaluating transcriptional activity (Table 5).

[1] = biological target: T2, GST-LXRβ ligand-binding domain (Homo sapiens, UniProt P55055); test: TR-FRETβ activity assay (NCoA3 coactivator peptide recruitment); type: biochemical; settings: 1 μM 24(S)-25-epoxycholesterol prestimulation
T2 construct: amino acids 156-461; NP009052; made in house; host or cells: E. coli
T2 sequence (P55055 156-460 limits assumed): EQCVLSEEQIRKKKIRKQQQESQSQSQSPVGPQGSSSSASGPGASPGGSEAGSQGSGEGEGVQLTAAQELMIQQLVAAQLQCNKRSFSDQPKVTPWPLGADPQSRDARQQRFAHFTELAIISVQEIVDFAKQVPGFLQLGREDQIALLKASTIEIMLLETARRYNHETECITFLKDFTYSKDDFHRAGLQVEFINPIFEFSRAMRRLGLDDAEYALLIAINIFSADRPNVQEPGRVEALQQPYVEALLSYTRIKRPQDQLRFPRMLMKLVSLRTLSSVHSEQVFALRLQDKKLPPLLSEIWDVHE
Procedure, shortened: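 Inverse-agonist format, with LXR prestimulated by 1 μM 24(S)-25-epoxycholesterol in pH 6.8 Tris/HCl, 240 mM KCl, BSA and Triton. Ten concentrations from 50 μM to 0.002 μM were equilibrated 1 h at 4° C with 76 nM GST-LXRβ LBD and 400 nM biotin-NCoA3 peptide. Peptide recruitment detected by 665/615 nm TR-FRET.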

LXRβ [2] = biological target: T3, LXRβ (Homo sapiens, UniProt P55055); test: LXR Gal4 reporter transient transfection assay (mammalian two-hybrid, HEK293), LXRβ; type: cell-based; parameters: LXRβ (amino acids 156-461); expressed in transfected cells; host or cells: HEK293; settings: full length (FL) LXRβ, HEK293; read-out: FL-M2H Gal4β
T3 sequence (P55055 1-460): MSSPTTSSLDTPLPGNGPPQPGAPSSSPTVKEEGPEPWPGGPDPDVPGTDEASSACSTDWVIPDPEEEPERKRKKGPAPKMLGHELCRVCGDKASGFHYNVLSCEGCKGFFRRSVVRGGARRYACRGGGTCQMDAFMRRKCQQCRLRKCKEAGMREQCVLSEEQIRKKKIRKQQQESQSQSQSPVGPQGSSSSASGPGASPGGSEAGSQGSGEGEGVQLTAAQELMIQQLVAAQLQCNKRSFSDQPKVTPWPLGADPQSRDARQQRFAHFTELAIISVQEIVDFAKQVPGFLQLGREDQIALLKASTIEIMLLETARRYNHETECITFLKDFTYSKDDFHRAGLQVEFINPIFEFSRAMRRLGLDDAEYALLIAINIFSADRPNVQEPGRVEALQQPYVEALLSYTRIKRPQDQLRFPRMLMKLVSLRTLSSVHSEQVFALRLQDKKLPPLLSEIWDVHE
Procedure, shortened: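 Mammalian two-hybrid read-out of LXR–coactivator (SRC1) or corepressor (NCoR) interaction: firefly luciferase under GAL4 response elements, normalised via Renilla co-transfection. LXRα/β full-length or LBD fusions expressed transiently in HEK293; compounds (final DMSO ≤0.2%) given 4 h after transfection for 16 h before lysis.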

LXRβ [3] = biological target: T4, LXRβ (Homo sapiens, UniProt P55055); test: as above; type: cell-based; settings: ligand-binding domain (LBD) of LXRβ, HEK293; read-out: LBD-M2H Gal4β
T4 construct: LXRβ (amino acids 156-461); expressed in transfected cells; host or cells: HEK293
T4 sequence (P55055 156-460): T2 sequence (P55055 156-460 limits assumed)
Method: as §1, §2

[4] = Pharmacokinetics in mice after single oral dosing (blood/plasma and liver exposure); type: in vivo; settings: for blood/plasma exposure / liver exposure / liver/blood ratio / blood/plasma exposure (below LLOQ) / liver exposure (below LLOQ): 20 mg/kg single oral dose, time point 4 h; for blood/plasma exposure (below LLOQ) / liver exposure (below LLOQ): number is the LLOQ; for oral bioavailability: single oral dose
Method: The pharmacokinetics of the compounds was assessed in mice after single dosing and oral administrations. Blood/plasma and liver exposure was measured via LC-MS.
The study design was as follows: • Animals: C57/bl6/J (Janvier) males • Diet: standard rodent chow • Dose: 20 mg/kg • Animal handling: animals were withdrawn from food at least 12 h before administration • Design: single dose oral administration, n=3 animals per group • Sacrifice: at stated time point (4, 12 or 24 h) after administration • Bioanalytics: LC-MS of liver and blood/plasma samples

Structure (SMILES) | EC50 (LXRα) [µM] | EC50 [1] [µM] | EC50 (LXRβ [2]) [µM] | EC50 (LXRβ [3]) [µM] | other results
N#Cc1cccc(-c2c(-c3cccc(-c4ccc(C(=O)O)cc4Cl)c3)n(S(=O)(=O)c3ccc(C(F)F)cc3)c3ccc(F)cc23)c1 [C11/48] | < 0.1 | < 0.1 | < 0.1 |  | 
Cc1ccc(S(=O)(=O)n2c(-c3cccc(-c4ccc(CN(C)C)cc4Cl)c3)c(-c3ccsc3C#N)c3cc(F)ccc32)cc1 [Compound 2] | < 0.1 | 0.1 to 1 | < 0.1 |  | 
N#Cc1cccc(C#N)c1-c1c(-c2cccc(-c3ccc(C(=O)O)cc3Cl)c2)n(S(=O)(=O)c2ccc(C(F)F)cc2)c2cc(F)c(O)cc12 [Compound 44] | < 0.1 | 0.1 to 1 | < 0.1 |  | 
Cc1ccc(S(=O)(=O)n2c(-c3cccc(N4CC(C(=O)O)C4)c3)c(-c3ccsc3C#N)c3cc(F)c(Cl)cc32)cc1 [3/43] |  | 1 to 10 | < 0.1 | 0.1 to 1 | 
Cc1cccc(C#N)c1-c1c(-c2cccc(-c3ccc(C(=O)O)cc3Cl)c2)n(S(=O)(=O)c2ccc(C(F)F)cc2)c2ccc(F)cc12 [41/2, 2-chloro-3′-(3-(2-cyano-6-methylphenyl)-1-((4-(difluoro-methyl)phenyl)sulfonyl)-5-fluoro-1H-indol-2-yl)-[1,1′-biphenyl]-4-carboxylic acid] | < 0.1 | < 0.1 |  |  | 
Cc1ccc(S(=O)(=O)n2c(-c3cccc(N4CC(C(=O)O)C4)c3)c(-c3ccsc3C#N)c3cc(Cl)ccc32)cc1 [3/44] |  | 1 to 10 | < 0.1 | < 0.1 | 
Cc1cccc(C#N)c1-c1c(-c2cccc(-c3ccc(C(=O)O)cc3Cl)c2)n(S(=O)(=O)c2ccc(C(F)F)cc2)c2ccc(F)cc12 [11/36] | < 0.1 | < 0.1 | < 0.1 |  | 
Cc1ccc(S(=O)(=O)n2c(-c3cccc(-c4cnc(C(=O)O)cc4C)c3)c(-c3ccsc3C#N)c3cc(F)ccc32)cc1 [Compound 36] | 0.1 to 1 | 1 to 10 | 0.1 to 1 |  | 
Cc1ccc(S(=O)(=O)n2c(-c3cccc(N4CC(C(=O)O)C4)c3)c(-c3ccsc3C#N)c3cc(C)ccc32)cc1 [3/46] |  | 0.1 to 1 | < 0.1 | < 0.1 | 
N#Cc1sccc1-c1c(-c2cccc(N3CC(C(=O)O)C3)c2)n(S(=O)(=O)c2ccc(Cl)cc2)c2ccccc12 [30/7] |  | 0.1 to 1 |  | < 0.1 | blood/plasma exposure [4]: D (<100 nM); liver exposure [4]: B (300 nM to ≤1 μM); liver/blood ratio [4]: D (>30)
Cc1ccc(S(=O)(=O)n2c(-c3cccc(-c4ccc(C(=O)O)cc4Cl)c3)c(-c3ccccc3C#N)c3cc(F)ccc32)cc1 [Compound 11] | < 0.1 | < 0.1 | < 0.1 |  | 
Cc1ccc(S(=O)(=O)n2c(-c3cccc(-c4ccc(C(=O)NO)cc4)c3)c(-c3ccsc3C#N)c3cc(F)ccc32)cc1 [Compound 6] | < 0.1 | 0.1 to 1 | < 0.1 |  | 
Cc1ccc(S(=O)(=O)n2c(-c3cccc(-c4ccc(C(=O)NCCS(=O)(=O)O)cc4Cl)c3)c(-c3ccsc3C#N)c3cc(F)ccc32)cc1 [Compound 10] | < 0.1 | 0.1 to 1 | 0.1 to 1 |  | 
Cc1ccc(S(=O)(=O)n2c(-c3cccc(-c4ccc(C(N)=O)cc4)c3)c(-c3ccsc3C#N)c3cc(F)ccc32)cc1 [6/2] | < 0.1 | 0.1 to 1 | < 0.1 |  | 
CCOC(=O)c1ccc(CN(Cc2ccc(-c3cccc(S(C)(=O)=O)c3)cc2)S(=O)(=O)c2c(C)cc(C)cc2C)o1 [SR9238, reference compound] |  |  |  |  | blood/plasma exposure (below LLOQ) [4]: below LLOQ; liver exposure (below LLOQ) [4]: below LLOQ; oral bioavailability [4]: not orally bioavailable
Cc1cc(C)c(S(=O)(=O)N(Cc2ccc(-c3cccc(S(C)(=O)=O)c3)cc2)Cc2ccc(C(F)(F)F)o2)c(C)c1 [GSK2033, reference compound] |  |  |  |  | blood/plasma exposure (below LLOQ) [4]: (14.4 ng/mL); liver exposure (below LLOQ) [4]: (9.6 ng/mL); oral bioavailability [4]: not orally bioavailable
Cc1ccc(S(=O)(=O)n2c(-c3cccc(-c4ccc(-c5nnn[nH]5)cc4Cl)c3)c(-c3ccsc3C#N)c3cc(F)ccc32)cc1 [Compound 37] | < 0.1 | 0.1 to 1 | < 0.1 |  | 
N#Cc1sccc1-c1c(-c2cccc(C3CC3C(=O)O)c2)n(S(=O)(=O)c2ccc(Cl)cc2)c2ccc(F)cc12 (stereo not drawn) [3/24] |  |  | < 0.1 | < 0.1 | blood/plasma exposure [4]: D (<100 nM); liver exposure [4]: C (1 μM to ≤3 μM); liver/blood ratio [4]: D (>30)
Cc1ccc(S(=O)(=O)n2c(-c3cccc(N4CC(C(=O)O)C4)c3)c(-c3ccsc3C#N)c3cc(F)c(F)cc32)cc1 [3/42] |  | 1 to 10 | < 0.1 | < 0.1 | 
